In ChEMBL document CHEMBL1201862, “PubChem BioAssay data set” (2004):
Active and inactive are the calls of the source. Rule as the data show it: actives have a measured IC50 and inactives only a lower limit.

Target: Envelope glycoprotein gp160 (Human immunodeficiency virus 1, UniProt Q6QLK5)
Assay: cell-free HIV fusion peptide-binding blockers – biochemical, uHTS, fluorescence dequenching, […] (AID 1986)

Chain of Envelope glycoprotein gp160 (Q6QLK5 whole entry, the tested form may be a part): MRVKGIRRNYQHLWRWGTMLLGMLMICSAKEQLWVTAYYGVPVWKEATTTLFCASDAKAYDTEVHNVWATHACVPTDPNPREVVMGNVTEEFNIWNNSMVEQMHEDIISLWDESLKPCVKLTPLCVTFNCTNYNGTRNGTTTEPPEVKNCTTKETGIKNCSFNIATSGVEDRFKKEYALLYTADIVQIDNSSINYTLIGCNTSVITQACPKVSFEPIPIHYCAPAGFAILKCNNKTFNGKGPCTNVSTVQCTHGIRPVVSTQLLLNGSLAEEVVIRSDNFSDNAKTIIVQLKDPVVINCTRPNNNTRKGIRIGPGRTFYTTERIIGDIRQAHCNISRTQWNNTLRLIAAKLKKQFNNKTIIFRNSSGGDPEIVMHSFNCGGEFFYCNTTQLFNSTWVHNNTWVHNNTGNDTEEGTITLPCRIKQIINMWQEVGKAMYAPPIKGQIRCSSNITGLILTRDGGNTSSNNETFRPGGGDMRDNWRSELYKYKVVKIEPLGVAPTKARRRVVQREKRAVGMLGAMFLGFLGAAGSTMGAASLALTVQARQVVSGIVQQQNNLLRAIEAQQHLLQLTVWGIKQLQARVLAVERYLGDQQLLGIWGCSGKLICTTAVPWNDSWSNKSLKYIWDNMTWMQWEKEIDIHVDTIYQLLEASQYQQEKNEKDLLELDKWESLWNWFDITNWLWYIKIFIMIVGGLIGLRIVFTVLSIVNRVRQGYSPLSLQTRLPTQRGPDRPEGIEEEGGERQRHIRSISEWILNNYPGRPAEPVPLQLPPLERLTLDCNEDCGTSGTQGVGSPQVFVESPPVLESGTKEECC

O=C(O)c1ccccc1-c1ccccc1C(=O)Nc1ccc(-c2nc3cc(Cl)ccc3o2)cc1
IC50: 24.4 µM (active)

COc1cc(/C=C2\C(=N)N3N=C(S(C)(=O)=O)SC3=NC2=O)ccc1OC(=O)c1cccs1
IC50: 12.1 µM (active)
